According to the NIST ThermoML archive (doi:10.1007/s10765-011-0997-8):
Numbers after ± are expanded uncertainties.

Conditions: 101.33 kPa, Liquid; for speed of sound: Linear variable-path acoustic interferometer; for mass density: Pycnometric method

Row | mass density (308.15 K) [kg/m3] | Compound | speed of sound (298.15 K) [m/s] | mass density (298.15 K) [kg/m3]
1 | 868.81 ± 0.49 | C1CCOCC1 [tetrahydropyran] | 1272 ± 3 | –
2 | – | Cc1ccccc1 [toluene] | 1303 ± 2 | 862.22 ± 0.31
3 | – | c1ccccc1 [benzene] | 1298 ± 3 | 873.64 ± 0.46
4 | – | Cc1ccc(C)cc1 [1,4-dimethylbenzene] | 1310 ± 2 | 856.65 ± 0.28
5 | – | Cc1ccccc1C [1,2-dimethylbenzene] | 1346 ± 2 | 875.9 ± 0.28
